The record followed here is US20260008783A1, “MODULATORS OF FSHR AND USES THEREOF” (Celmatix Inc., priority 2022, published 2026).

pIC50: −log10 of the molar value. Where “and” joins values, the source holds several entries; their conditions need not be identical. Equal entries are not always repeated.

The experiment deals with T1, Follicle Stimulating Hormone Receptor (FSHR) (Homo sapiens, UniProt P23945).
T1 construct: HA (N); expressed in transfected cells; host or cells: CHO-K1, transient transfection, pHM6 vector (CMV promoter)
T1 sequence (P23945 18-695): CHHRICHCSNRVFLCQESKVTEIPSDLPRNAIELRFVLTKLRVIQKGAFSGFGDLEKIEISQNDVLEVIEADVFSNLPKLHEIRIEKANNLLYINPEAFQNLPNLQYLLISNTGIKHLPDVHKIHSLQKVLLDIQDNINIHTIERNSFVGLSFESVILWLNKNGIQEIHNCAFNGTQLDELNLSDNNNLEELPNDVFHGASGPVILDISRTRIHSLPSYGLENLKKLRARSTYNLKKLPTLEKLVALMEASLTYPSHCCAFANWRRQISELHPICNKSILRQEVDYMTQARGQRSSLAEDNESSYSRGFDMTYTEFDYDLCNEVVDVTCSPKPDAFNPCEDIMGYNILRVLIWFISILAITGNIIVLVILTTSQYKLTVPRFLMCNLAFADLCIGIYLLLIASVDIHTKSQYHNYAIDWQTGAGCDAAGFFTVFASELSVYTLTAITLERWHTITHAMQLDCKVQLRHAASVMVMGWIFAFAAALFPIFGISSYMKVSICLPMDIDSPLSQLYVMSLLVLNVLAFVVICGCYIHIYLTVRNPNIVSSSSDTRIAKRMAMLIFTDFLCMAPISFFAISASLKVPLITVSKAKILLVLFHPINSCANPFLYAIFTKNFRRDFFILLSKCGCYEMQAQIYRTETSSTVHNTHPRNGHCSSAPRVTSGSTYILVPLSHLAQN
As to the kind of experiment: HTRF cAMP agonist assay, FSHR, transiently transfected CHO-K1 cells. It counts as cell-based. Particulars: CHO-K1 cells transiently expressing human FSHR, read-out: IC50 FSHR LANCE CAMP.
Regarding `COc1cc2c(cc1-c1cncc(C#N)c1)-c1c(c(C(=O)N3CCNC(=O)C3(C)C)nn1-c1cc(Cl)cc(Cl)c1)CC2` [Compound 8-26A], the pIC50 is 7.99.
Consider `COc1cc2c(cc1-c1cncc(C(N)=O)c1)-c1c(c(C(=O)N3CCNC(=O)C3(C)C)nn1-c1cc(Cl)cc(Cl)c1)CC2` [Compound 8-26], for which the pIC50 is 7.79.
As to `COc1cc2c(cc1-c1cncc(C(N)=O)c1)-c1c(c(C(=O)N3CCNC(=O)C3(C)C)nn1-c1cc(Cl)cc(Cl)c1)CC2` [Compound 8-26b], the pIC50 is 7.69.
As for `COc1cc2c(cc1-c1cncc(C(N)=O)c1)-c1c(c(C(=O)N3CCCC34COC4)nn1-c1cc(Cl)cc(Cl)c1)CC2` [Compound 8-27], the pIC50 is 7.52.
The result for `COc1cc2c(cc1-c1cncc(C(N)=O)c1)-c1c(c(C(=O)N(C)C3CCN(C)C3)nn1-c1cc(Cl)cc(Cl)c1)CC2` (stereo not shown) [Compound 8-28] reads 5.66; that for `COc1cc2c(cc1-c1cncc(C(N)=O)c1)-c1c(c(C(=O)N3C[C@@H]4C[C@H]3CO4)nn1-c1cc(Cl)cc(Cl)c1)CC2` [Compound 8-29], 7.56; that for `COc1cc2c(cc1-c1cncc(C(N)=O)c1)-c1c(c(C(=O)N3CC[C@H]4CN(C)C[C@H]43)nn1-c1cc(Cl)cc(Cl)c1)CC2` [Compound 8-30], 5.76.
The value for `COc1cc2c(cc1-c1cncc(C(N)=O)c1)-c1c(c(C(=O)N3CCC4C3CCN4C(=O)OC(C)(C)C)nn1-c1cc(Cl)cc(Cl)c1)CC2` (stereo not shown) [Compound 8-31A] was 6.84; that for `COc1cc2c(cc1-c1cncc(C(N)=O)c1)-c1c(c(C(=O)N3CCC4C3CCN4C)nn1-c1cc(Cl)cc(Cl)c1)CC2` (stereo not shown) [Compound 8-31] was 5.75.
For the molecule `COc1cc2c(cc1-c1cncc(C(N)=O)c1)-c1c(c(C(=O)N3COCC3(C)C)nn1-c1cc(Cl)cc(Cl)c1)CC2` [Compound 8-32], the pIC50 is 9.08.
Consider `COc1cc2c(cc1-c1cncc(C(N)=O)c1)-c1c(c(C(=O)N3CC4CC3CN4C(=O)OC(C)(C)C)nn1-c1cc(Cl)cc(Cl)c1)CC2` (stereo not shown) [Compound 8-33A], for which the pIC50 is 6.98.
Regarding `COc1cc2c(cc1-c1cncc(C(N)=O)c1)-c1c(c(C(=O)N3CC4CC3CN4)nn1-c1cc(Cl)cc(Cl)c1)CC2` (stereo not shown) [Compound 8-33], the pIC50 was 6.36.
The result for `CCN(C)C(=O)c1nn(-c2cc(Cl)cc(Cl)c2)c2c1CCc1cc(OC)c(-c3cncc(C(N)=O)c3)cc1-2` [Compound 8-34] reads 7.87.
Regarding `CCN(CC)C(=O)c1nn(-c2cc(Cl)cc(Cl)c2)c2c1CCc1cc(OC)c(-c3cncc(C(N)=O)c3)cc1-2` [Compound 8-35], the pIC50 was 8.40.
Turning to `COc1cc2c(cc1-c1cncc(C(N)=O)c1)-c1c(c(C(=O)N(C)C(C)C)nn1-c1cc(Cl)cc(Cl)c1)CC2` [Compound 8-36], the pIC50 is 8.38.
As to `COc1cc2c(cc1-c1cncc(C(N)=O)c1)-c1c(c(C(=O)N3CCCC3)nn1-c1cc(Cl)cc(Cl)c1)CC2` [Compound 8-37], the pIC50 is 7.32.
For the molecule `COc1cc2c(cc1-c1cncc(C(N)=O)c1)-c1c(c(C(=O)N3CCCC3C)nn1-c1cc(Cl)cc(Cl)c1)CC2` (stereo not shown) [Compound 8-38], the pIC50 was 8.04.
Take `COc1cc2c(cc1-c1cncc(C(N)=O)c1)-c1c(c(C(=O)N(C)C3CC3)nn1-c1cc(Cl)cc(Cl)c1)CC2` [Compound 8-39]: the pIC50 is 7.81.
The result for `CCN(C(=O)c1nn(-c2cc(Cl)cc(Cl)c2)c2c1CCc1cc(OC)c(-c3cncc(C(N)=O)c3)cc1-2)C(C)(C)C` [Compound 8-41] reads 8.75 and 8.61; that for `COc1cc2c(cc1-c1cncc(C(N)=O)c1)-c1c(c(C(=O)N(C)C(C)C3CC3)nn1-c1cc(Cl)cc(Cl)c1)CC2` (stereo not shown) [Compound 8-42], 8.17; that for `COc1cc2c(cc1-c1cncc(C(N)=O)c1)-c1c(c(C(=O)N3CCOC[C@@H]3C)nn1-c1cc(Cl)cc(Cl)c1)CC2` [Compound 8-43], 8.59.
Turning to `CC[C@H]1COCCN1C(=O)c1nn(-c2cc(Cl)cc(Cl)c2)c2c1CCc1cc(OC)c(-c3cncc(C(N)=O)c3)cc1-2` [Compound 8-44], the pIC50 is 8.69.
The value for `COc1cc2c(cc1-c1cncc(C(N)=O)c1)-c1c(c(C(=O)N3CCC[C@H]3C)nn1-c1cc(Cl)cc(Cl)c1)CC2` [Compound 8-45] was 7.76; that for `COc1cc2c(cc1-c1cncc(C(N)=O)c1)-c1c(c(C(=O)N(C)C3CCS(=O)(=O)C3)nn1-c1cc(Cl)cc(Cl)c1)CC2` (stereo not shown) [Compound 8-46] was 6.75.
Regarding `COc1cc2c(cc1-c1cncc(C(N)=O)c1)-c1c(c(C(=O)N(C)C3CCCC3)nn1-c1cc(Cl)cc(Cl)c1)CC2` [Compound 8-47], the pIC50 is 7.53.
`COc1cc2c(cc1-c1cncc(C(N)=O)c1)-c1c(c(C(=O)N3[C@H](C)COC[C@@H]3C)nn1-c1cc(Cl)cc(Cl)c1)CC2` [Compound 8-49]: the pIC50 was 8.62.
As to `COc1cc2c(cc1-c1cncc(C(N)=O)c1)-c1c(c(C(=O)N3[C@@H](C)COC[C@@H]3C)nn1-c1cc(Cl)cc(Cl)c1)CC2` [Compound 8-50], the pIC50 was 8.47.
Turning to `COc1cc2c(cc1-c1cncc(C(N)=O)c1)-c1c(c(C(=O)N3CCOC3(C)C)nn1-c1cc(Cl)cc(Cl)c1)CC2` [Compound 8-51, 5-(1-(3,5-dichlorophenyl)-3-(2,2-dimethyloxazolidine-3-carbonyl)-7-methoxy-4,5-dihydro-1H-benzo[g]indazol-8-yl)nicotinamide], the pIC50 is 8.51.
The value for `COc1cc2c(cc1-c1cncc(C(N)=O)c1)-c1c(c(C(=O)NC(C)(C)CO)nn1-c1cc(Cl)cc(Cl)c1)CC2` [Compound 8-52A] was 7.41.
The value for `COc1cc2c(cc1-c1cncc(C(N)=O)c1)-c1c(c(C(=O)NC(C)CO)nn1-c1cc(Cl)cc(Cl)c1)CC2` (stereo not shown) [Compound 8-54A] was 6.65; that for `COc1cc2c(cc1-c1cncc(C(N)=O)c1)-c1c(c(C(=O)N(C)CC(F)(F)F)nn1-c1cc(Cl)cc(Cl)c1)CC2` [Compound 8-55] was 8.18; that for `COc1cc2c(cc1-c1cncc(C(N)=O)c1)-c1c(c(C(=O)N(CC(F)(F)F)CC(F)(F)F)nn1-c1cc(Cl)cc(Cl)c1)CC2` [Compound 8-56] was 7.21.
`COc1cc2c(cc1-c1cncc(C(N)=O)c1)-c1c(c(C(=O)N3CCNC[C@H]3C(F)(F)F)nn1-c1cc(Cl)cc(Cl)c1)CC2` [Compound 8-57, 5-[1-(3,5-dichlorophenyl)-7-methoxy-3-[(2S)-2-(trifluoromethyl)piperazine-1-carbonyl]-4,5-dihydrobenzo[g]indazol-8-yl]pyridine-3-carboxamide]: the pIC50 was 8.41.
In the case of `COc1cc2c(cc1-c1cncc(C(N)=O)c1)-c1c(c(C(=O)N3CCN(CC(F)(F)F)CC3(C)C)nn1-c1cc(Cl)cc(Cl)c1)CC2` [Compound 8-58, 5-(1-(3,5-dichlorophenyl)-3-(2,2-dimethyl-4-(2,2,2-trifluoroethyl)piperazine-1-carbonyl)-7-methoxy-4,5-dihydro-1H-benzo[g]indazol-8-yl)nicotinamide], the pIC50 was 6.99.
The result for `CCN1CCN(C(=O)c2nn(-c3cc(Cl)cc(Cl)c3)c3c2CCc2cc(OC)c(-c4cncc(C(N)=O)c4)cc2-3)C(C)(C)C1` [Compound 8-60] reads 7.41; that for `COc1cc2c(cc1-c1cncc(C(N)=O)c1)-c1c(c(C(=O)N3CCN(C(C)C)CC3(C)C)nn1-c1cc(Cl)cc(Cl)c1)CC2` [Compound 8-61, 5-(1-(3,5-dichlorophenyl)-3-(4-isopropyl-2,2-dimethylpiperazine-1-carbonyl)-7-methoxy-4,5-dihydro-1H-benzo[g]indazol-8-yl)nicotinamide], 6.72.
As for `COc1cc2c(cc1-c1cncc(C(N)=O)c1)-c1c(c(C(=O)N3CCN(C4CC4)CC3(C)C)nn1-c1cc(Cl)cc(Cl)c1)CC2` [Compound 8-62], the pIC50 was 6.91.
For `CCCN1CCN(C(=O)c2nn(-c3cc(Cl)cc(Cl)c3)c3c2CCc2cc(OC)c(-c4cncc(C(N)=O)c4)cc2-3)C(C)(C)C1` [Compound 8-63], the pIC50 is 6.92.
On to `COc1cc2c(cc1-c1cncc(C(N)=O)c1)-c1c(c(C(=O)N3CCN(CC(=O)O)CC3(C)C)nn1-c1cc(Cl)cc(Cl)c1)CC2` [Compound 8-64], for which the negative-log IC50 (pIC50) is 5.47.
On to `COc1cc2c(cc1-c1cncc(C(N)=O)c1)-c1c(c(C(=O)N3CCN(CCC(=O)O)CC3(C)C)nn1-c1cc(Cl)cc(Cl)c1)CC2` [Compound 8-65], for which the pIC50 is 5.88.
The result for `COc1cc2c(cc1-c1cncc(C(N)=O)c1)-c1c(c(C(=O)N3CCN(CCN)CC3(C)C)nn1-c1cc(Cl)cc(Cl)c1)CC2` [Compound 8-66] reads 5.55; that for `COc1cc2c(cc1-c1cncc(C(N)=O)c1)-c1c(c(C(=O)N3CCCC(=O)C3(C)C)nn1-c1cc(Cl)cc(Cl)c1)CC2` [Compound 8-67, 5-(1-(3,5-dichlorophenyl)-3-(2,2-dimethyl-3-oxopiperidine-1-carbonyl)-7-methoxy-4,5-dihydro-1H-benzo[g]indazol-8-yl)nicotinamide], 8.37.
For `COc1cc2c(cc1-c1cncc(C(N)=O)c1)-c1c(c(C(=O)N3CCN(C)C(=O)C3(C)C)nn1-c1cc(Cl)cc(Cl)c1)CC2` [Compound 8-69], the pIC50 is 7.09.
